Experimental data published in patent US11555175B2, “Cell culture methods and media comprising N-acetylcysteine” (Medimmune, LLC, priority 2014, dated 2023).

Columns and labels:
Type in all cases: cell-based
[1] = tested on: NS0 Cell Line 1 (expressing an anti-IL-9 antibody); assay: Cell doubling time of NS0 Cell Line 1 at vial thaw with NAC-supplemented medium; conditions: for average cell doubling time at vial thaw: control medium 57.6 hours; for cell doubling time at vial thaw: control medium 109.8 hours
Text: (§1) To investigate the role of N-Acetylcysteine on thaw recovery, cell viability, cell growth and cell doubling time on subsequent passaging, the following methods were used. Three different NS0 cell lines cultured in one to three different Animal Protein Free (“APF”) media were investigated to study the effect of N-acetylcysteine (NAC) on cell growth at vial thaw and during routine cell expansion. One of the cell lines was a NS0 null host cell that had not been transformed to express a recombinant protein (NS0 Null Cell Line). The other two NS0 cell lines were engineered to express a therapeutic recombinant protein: NS0 Cell Line 1 (expressing an anti-IL-9 antibody) and NS0 Cell Line 2 (expressing BAK502G9, an anti-IL-13 antibody). NS0 Cell Line 1 was thawed and expanded in two different APF media (APF Medium 1 or APF Medium 2) supplemented with various concentrations of NAC ranging from 1.5 mM to 2.5 mM. NS0 Cell Line 2 was thawed and expanded in three different APF media (APF Medium 1, APF Medium 2 or a commercially available NS0 cell culture media (CD Hybridoma+cholesterol from Invitrogen/Gibco)) supplemented with NAC ranging from 0.5 mM to 2.5 mM, while the untransformed host cell line (NS0 Null Cell Line) was thawed in APF medium 2 supplemented with NAC ranging from 0.5 mM to 1.5 mM. NAC was obtained from Sigma and was either added to the medium directly or dissolved in water at 100 mM concentration before adding to the media at the appropriate concentration. All three media (APF Medium 1, APF Medium 2, and CD Hybridoma+cholesterol from Invitrogen/Gibco) supported growth of NS0 cells, as illustrated in FIGS. 1-12. APF Medium 1 and APF Medium 2 contain standard cell culture components including: amino acids, vitamins, lipids, sugar, small peptides, pH buffer, trace metals, inorganic salts, nucleotides, nucleotide precursors, surfactants, reducing agents, cholesterol, lipids and antioxidants.
(§2) Prior to vial thaw, media were temperature and pH equilibrated for a minimum of 1 hour in a 6% CO2 incubator at 37° C. with agitation at 120 rpm on a shaker. Vials were thawed using a 37° C. water bath and the entire contents were transferred equilibrated media. A cell count using Beckman Vi-Cell (an image-based cell viability analyzer) was obtained to measure the viable cell density and viability.
(§3) Viable cell densities during the first 3 to 4 days (i.e. exponential growth phase) at each passage were used to calculate population doubling times during both the first few days after the vial thaw while the cells were recovering from the thaw and during subsequent cell passages when the cells have fully recovered and reached a consistent doubling time from passage to passage.
NS0 cells (i.e. NS0 Cell Line 1) expressing an anti-IL-9 monoclonal antibody were in a frozen stock. Frozen NS0 Cell Line 1 cells were thawed in animal-protein free (APF) medium (i.e. APF media 1 or APF media 2) supplemented with various concentrations of N-acetylcysteine (NAC) and viable cell density during exponential growth phase was used to calculate average cell doubling time as described above.

[2] = tested on: NS0 Cell Line 1 (expressing an anti-IL-9 antibody); assay: Cell doubling time of NS0 Cell Line 1 during cell expansion with NAC-supplemented medium
Text: as §1, §3
NS0 cells (i.e. NS0 Cell Line 1) expressing an anti-IL-9 monoclonal antibody were cultured in animal-protein free (APF) medium (i.e. APF media 1 or APF media 2). The cells used in the vial thaw studies described in Example 1 were split into the same media (APF media 1 or APF media 2 supplemented with various concentrations of N-acetylcysteine) and allowed to recover in subsequent passages until a consistent doubling time from passage to passage was achieved. Viable cell density during exponential growth phase after recovery was used to calculate average cell doubling time as described in Example 1.

[3] = tested on: NS0 Null Cell Line; assay: Cell doubling time of NS0 Null Cell Line during cell expansion with NAC-supplemented medium; conditions: for Average Doubling Time: APF Medium 2, during expansion, 0.0 mM control 31.9
Text: as §1, §3
NS0 cells (i.e. NS0 Null Cell Line) not transfected with a heterologous protein were cultured in animal-protein free (APF) medium (i.e. APF media 2). The cells used in the vial thaw studies described in Example 3 were split into the same media (APF media 2 supplemented with various concentrations of N-acetylcysteine) and allowed to recover in subsequent passages until a consistent doubling time from passage to passage was achieved. Viable cell density during exponential growth phase after recovery was used to calculate average cell doubling time as described in Example 1.

[4] = tested on: NS0 Null Cell Line; assay: Cell doubling time of NS0 Null Cell Line at vial thaw with NAC-supplemented medium; conditions: for cell doubling time at vial thaw: control medium 67.8 hours
Text: as §1, §2, §3
NS0 cells (i.e. NS0 Null Cell Line) not transfected with a heterologous protein were in a frozen stock. Frozen NS0 Null Cell Line cells were thawed in animal-protein free (APF) medium (i.e. APF media 2) supplemented with various concentrations of N-acetylcysteine (NAC) and viable cell density during exponential growth phase was used to calculate average cell doubling time as described in Example 1.

[5] = tested on: NS0 Cell Line 2 (expressing BAK502G9, an anti-IL-13 antibody); assay: Cell doubling time of NS0 Cell Line 2 during cell expansion with NAC-supplemented medium
Text: as §1, §3
NS0 cells (i.e. NS0 Cell Line 2) expressing a monoclonal antibody (i.e. BAK502G9, an anti-IL-13 antibody) were cultured in animal-protein free (APF) medium (i.e. APF media 1, APF media 2 or CD Hybridoma medium (Gibco) supplemented with cholesterol (1× Invitrogen Cholesterol Lipid Concentrate)). The cells used in the vial thaw studies described in Example 2 were split into the same media (APF media 1, APF media 2 or CD Hybridoma medium+cholesterol) supplemented with various concentrations of N-acetylcysteine and allowed to recover in subsequent passages until a consistent doubling time from passage to passage was achieved. Viable cell density during exponential growth phase after recovery was used to calculate average cell doubling time as described in Example 1.

[6] = tested on: NS0 Cell Line 2 (expressing BAK502G9, an anti-IL-13 antibody); assay: Cell doubling time of NS0 Cell Line 2 at vial thaw with NAC-supplemented medium
Text: as §1, §2, §3
NS0 cells (i.e. NS0 Cell Line 2) expressing a monoclonal antibody (i.e. BAK502G9, an anti-IL-13 antibody) were in a frozen stock. Frozen NS0 Cell Line 2 cells were thawed in animal-protein free (APF) medium (i.e. APF media 1, APF media 2 or CD Hybridoma medium (Gibco) supplemented with cholesterol (1× Invitrogen Cholesterol Lipid Concentrate)) supplemented with various concentrations of N-acetylcysteine (NAC) and viable cell density during exponential growth phase was used to calculate average cell doubling time as described in Example 1.

[7] = vial thaw, about 1.5 mM to about 2.5 mM NAC, APF media 1 and 2, vs control medium
[8] = during expansion, about 1.5 mM to about 2.5 mM NAC, APF media 1 and 2
[9] = vial thaw, 0.5 mM to 1.5 mM NAC, APF medium 2
[10] = during expansion, about 0.5 mM to about 2.5 mM NAC, three media
[11] = vial thaw, about 0.5 mM to about 2.5 mM NAC, three media, vs control medium

## CC(=O)N[C@@H](CS)C(=O)O [NAC, (2R) -2-acetamido-3-sulfanylpropanoic acid]
[1]; APF media 1, 1.5 mM NAC
  average cell doubling time at vial thaw: 55.6 h
[1]; APF media 1, 2.0 mM NAC
  average cell doubling time at vial thaw: 48.4 h
[1]; APF media 1, 2.5 mM NAC
  average cell doubling time at vial thaw: 53.9 h
[1]; APF media 2, 1.5 mM NAC
  cell doubling time at vial thaw: 47.5 h
[1]; APF media 2, 2.0 mM NAC
  cell doubling time at vial thaw: 56.9 h
[1]; APF media 2, 2.5 mM NAC
  cell doubling time at vial thaw: 47.7 h
[1]; [7]
  cell growth: increases
  cell viability: increases
[2]; APF Medium 1, during expansion, 1.5 mM NAC, 0.0 mM control 47.0
  Average Doubling Time: 42.3 h
[2]; APF Medium 1, during expansion, 2.0 mM NAC, 0.0 mM control 47.0
  Average Doubling Time: 46.1 h
[2]; APF Medium 1, during expansion, 2.5 mM NAC, 0.0 mM control 47.0
  Average Doubling Time: 63.6 h
[2]; APF Medium 2, during expansion, 1.5 mM NAC, 0.0 mM control 44.3
  Average Doubling Time: 34.8 h
[2]; APF Medium 2, during expansion, 2.0 mM NAC, 0.0 mM control 44.3
  Average Doubling Time: 34.6 h
[2]; APF Medium 2, during expansion, 2.5 mM NAC, 0.0 mM control 44.3
  Average Doubling Time: 34.8 h
[2]; [8]
  cell growth: increases
  cell viability: increases
[3]; 0.5 mM NAC
  Average Doubling Time: 26.4 h
[3]; 1.0 mM NAC
  Average Doubling Time: 26.4 h
[3]; 1.5 mM NAC
  Average Doubling Time: 26.2 h
[3]; during expansion, 0.5 mM to 1.5 mM NAC, APF medium 2
  cell growth: increased
[3]; during expansion, about 0.5 mM to about 2.0 mM NAC, statement covers three NS0 cell lines in three media
  cell viability: increased
[4]; APF media 2, 0.5 mM NAC
  cell doubling time at vial thaw: 36.8 h
[4]; APF media 2, 1.0 mM NAC
  cell doubling time at vial thaw: 38.4 h
[4]; APF media 2, 1.5 mM NAC
  cell doubling time at vial thaw: 57.9 h
[4]; [9]
  cell growth: increased
  cell viability: improved
[5]; APF Medium 1, during expansion, 0.5 mM NAC, 0.0 mM control 41.7
  Average Doubling Time: 35.4 h
[5]; APF Medium 1, during expansion, 1.0 mM NAC, 0.0 mM control 41.7
  Average Doubling Time: 31.2 h
[5]; APF Medium 1, during expansion, 2.5 mM NAC, 0.0 mM control 41.7
  Average Doubling Time: 31.2 h
[5]; APF Medium 2, during expansion, 0.5 mM NAC, 0.0 mM control 38.1
  Average Doubling Time: 30.2 h
[5]; APF Medium 2, during expansion, 1.0 mM NAC, 0.0 mM control 38.1
  Average Doubling Time: 28.8 h
[5]; APF Medium 2, during expansion, 2.0 mM NAC, 0.0 mM control 38.1
  Average Doubling Time: 31.5 h
[5]; Invitrogen CD Hybridoma Medium supplemented with cholesterol, during expansion, 0.5 mM NAC, 0.0 mM control 40.7
  Average Doubling Time: 39.7 h
[5]; Invitrogen CD Hybridoma Medium supplemented with cholesterol, during expansion, 1.0 mM NAC, 0.0 mM control 40.7
  Average Doubling Time: 37.5 h
[5]; Invitrogen CD Hybridoma Medium supplemented with cholesterol, during expansion, 2.0 mM NAC, 0.0 mM control 40.7
  Average Doubling Time: 35.7 h
[5]; [10]
  cell growth: increases
  cell viability: increases
[6]; APF media 1, 0.5 mM NAC, control medium 44.6 hours
  average cell doubling time at vial thaw: 39.6 h
[6]; APF media 1, 1.0 mM NAC, control medium 44.6 hours
  average cell doubling time at vial thaw: 41.6 h
[6]; APF media 1, 2.5 mM NAC, control medium 44.6 hours
  average cell doubling time at vial thaw: 37.5 h
[6]; APF media 2, 0.5 mM NAC, control medium 77.0 hours
  average cell doubling time at vial thaw: 57.7 h
[6]; APF media 2, 1.0 mM NAC, control medium 77.0 hours
  average cell doubling time at vial thaw: 37.0 h
[6]; APF media 2, 2.0 mM NAC, control medium 77.0 hours
  average cell doubling time at vial thaw: 39.7 h
[6]; CD Hybridoma medium (Gibco) + 1x Cholesterol Lipid Concentrate, 0.5 mM NAC, control medium 35.5 hours
  average cell doubling time at vial thaw: 34.7 h
[6]; CD Hybridoma medium (Gibco) + 1x Cholesterol Lipid Concentrate, 1.0 mM NAC, control medium 35.5 hours
  average cell doubling time at vial thaw: 30.6 h
[6]; CD Hybridoma medium (Gibco) + 1x Cholesterol Lipid Concentrate, 2.0 mM NAC, control medium 35.5 hours
  average cell doubling time at vial thaw: 30.9 h
[6]; [11]
  cell growth: increases
  cell viability: increases
